Data: article PMC9484358 (Archives of Pharmacal Research, 2022)

Test system: SARS-CoV-2 spike pseudovirus
Assay: organism not typed
Format: cell-based

| Compound | IC50 (read-out: IC50 value) [µM] | inhibition at 50 µM (read-out: Inhibition rate (%), 50 µM) [%] | inhibition at 100 µM (read-out: Inhibition rate (%), 100 µM) [%] |
| --- | --- | --- | --- |
| Cc1cc(-c2ccc(/N=N/c3ccc4c(S(=O)(=O)O)cc(S(=O)(=O)O)c(N)c4c3O)c(C)c2)ccc1/N=N/c1ccc2c(S(=O)(=O)O)cc(S(=O)(=O)O)c(N)c2c1O [Evans blue] | 26.9 |  |  |
| CC1(C)[C@@H](O[C@H]2O[C@H](C(=O)O)[C@@H](O)[C@H](O)[C@H]2O[C@@H]2O[C@H](C(=O)O)[C@@H](O)[C@H](O)[C@H]2O)CC[C@]2(C)[C@H]3C(=O)C=C4[C@@H]5C[C@@](C)(C(=O)O)CC[C@]5(C)CC[C@@]4(C)[C@]3(C)CC[C@@H]12 [Glycyrrhizic acid] |  | 4.01 ± 7.03 | 11.2 ± 6.96 |
